According to ChEMBL document CHEMBL3243976, “Ring D oxygenated Spirolactones. Characterization of human metabolic product of spironolactone” (1977):

Key:
Type in all cases: functional, Urine
[1] = system: Rattus norvegicus; assay: Antimineralocorticoid activity in adrenalectomized rat assessed as urinary log (Na X 10)/K at 2.4 mg, sc administered post deoxycorticosterone acetate treatment relative to control
[2] = system: Rattus norvegicus; assay: Antimineralocorticoid activity in po dosed adrenalectomized rat assessed as urinary log (Na X 10)/K administered post deoxycorticosterone acetate treatment relative to spironolactone
[3] = system: Rattus norvegicus; assay: Antimineralocorticoid activity in sc dosed adrenalectomized rat assessed as urinary log (Na X 10)/K administered post deoxycorticosterone acetate treatment relative to spironolactone
[4] = system: Rattus norvegicus; assay: Antimineralocorticoid activity in adrenalectomized rat assessed as urinary log (Na X 10)/K at 2.4 mg, sc administered post deoxycorticosterone acetate treatment relative to spironolactone

| Structure (SMILES) | T/C [1] | other results |
| --- | --- | --- |
| C[C@]12CCC(=O)C=C1C=CC1=C3CC[C@@]4(CCC(=O)O4)[C@@]3(C)CC[C@@H]12 | 0.82 | – |
| C[C@]12CCC(=O)C=C1C=C[C@H]1C3=CC[C@@]4(CCC(=O)O4)[C@@]3(C)CC[C@@H]12 | 0.67 | – |
| CC(=O)O[C@H]1C[C@@]2(CCC(=O)O2)[C@@]2(C)CC[C@H]3[C@@H](C=CC4=CC(=O)CC[C@@]43C)[C@H]12 | 0.77 | – |
| C[C@]12CCC(=O)C=C1C=C[C@H]1[C@@H]3[C@@H](O)C[C@@]4(CCC(=O)O4)[C@@]3(C)CC[C@@H]12 | 0.62 | – |
| C[C@]12CCC(=O)C=C1C=C[C@@H]1[C@@H]2CC[C@@]2(C)[C@H]1CC[C@@]21CCC(=O)O1 [CANRENONE] | – | Activity [2]: 35%; Activity [3]: 38% |
| C[C@]12CCC(=O)C=C1C=C[C@@H]1[C@@H]2CC[C@@]2(C)[C@H]1C(=O)C[C@@]21CCC(=O)O1 | 1.01 | Activity [4]: 15% |
| C[C@]12CCC(=O)C=C1C=C[C@@H]1[C@@H]2CC[C@@]2(C)[C@H]1C[C@H](O)[C@@]21CCC(=O)O1 | 0.84 | – |
